In article PMC10882696, “Novel 5-Substituted Oxindole Derivatives as Bruton’s Tyrosine Kinase Inhibitors: Design, Synthesis, Docking, Molecular Dynamics Simulation, and Biological Evaluation” (ACS Omega, 2024):
“Also recorded” adds a separate entry of the source.

Columns and labels:
[1] = Caco-2 permeability (gastrointestinal resorption model); format: in vitro ADME; conditions: human, Caco-2
Method: (§1) Selected compounds were assayed for human plasma and liver microsomal stability in vitro, PAMPA and cellular permeability models of gastrointestinal resorption, and the blood–brain barrier using Caco-2 and MDR1-MCDK cells as previously described.[38] Samples were analyzed in an Agilent RapidFire 300 High-Throughput Mass Spectrometry System (RF-MS; Agilent, Wakefield, MA) with subsequent detection in a Qtrap 5500 mass spectrometer (AB Sciex, Concord, Canada).

Caco-2 cells = assay: as above; format: in vitro ADME; conditions: for active efflux: Caco-2; for Caco-2 category: Caco-2 permeability
Method: as §1

HCT116p53^–/– = assay: 3 day MTS cytotoxicity assay, HCT116p53-/-; format: cell-based; conditions: ITK/BTK-negative, mean ± SD, n ≥ 6
Method: (§2) The cytotoxic activity of all the 10 compounds was tested under in vitro conditions using a 3 day standard 3-(4,5-dimethylthiazol-2yl)-5-(3-carboxymethoxyphenyl)-2-(4-sulfophenyl)-2H-tetrazolium reduction assay in 384-well plates on a robotic high-throughput screening platform (HighResBio, Boston, MA) as described elsewhere.[38] The IC50 values were calculated from the respective dose–response curves of compounds with Dotmatics (San Diego, CA, USA).

MRC-5 = assay: 3 day MTS cytotoxicity assay, MRC-5; format: cell-based; conditions: Homo sapiens, MRC5; MRC-5, non-cancer fibroblasts; mean ± SD, n ≥ 6
Method: as §2

HCT116 = assay: 3 day MTS cytotoxicity assay, HCT116; format: cell-based; conditions: Homo sapiens, HCT-116; HCT116, ITK/BTK-negative; mean ± SD, n ≥ 6
Method: as §2

K562 = assay: 3 day MTS cytotoxicity assay, K562; format: cell-based; conditions: Homo sapiens; K562, BTK-positive; mean ± SD, n ≥ 6
Method: as §2

U2OS = assay: 3 day MTS cytotoxicity assay, U2OS; format: cell-based; conditions: Homo sapiens, ITK/BTK-negative, mean ± SD, n ≥ 6
Method: as §2

JURKAT = assay: 3 day MTS cytotoxicity assay, JURKAT; format: cell-based; conditions: Homo sapiens, ITK-positive, mean ± SD, n ≥ 6
Method: as §2

BJ = assay: 3 day MTS cytotoxicity assay, BJ; format: cell-based; conditions: Homo sapiens, non-cancer fibroblasts, mean ± SD, n ≥ 6
Method: as §2

A549 = assay: 3 day MTS cytotoxicity assay, A549; format: cell-based; conditions: Homo sapiens; A549, ITK/BTK-negative; mean ± SD, n ≥ 6
Method: as §2

RAMOS = assay: 3 day MTS cytotoxicity assay, RAMOS; format: cell-based, human; conditions: for activity in RAMOS cells: BTK-high; for IC50: Homo sapiens, Ramos, BTK-positive, mean ± SD, n ≥ 6
Method: as §2

Lyn phosphorylation = assay: Western blot of Lyn phosphorylation in RAMOS cells; format: cell-based, human; conditions: 24 h
Method: (§3) RAMOS cells were plated at 0.5 × 10^6/mL density in six-well plates. After 24 h, cells were treated with compounds at concentrations of 1, 10, and 50 μM for 24 h. The concentration of the vehicle was 0.5% in the highest test drug concentration (50 μM). LPS stimulation of RAMOS cells followed by drug treatment was performed as described previously.[19] […]
(§4) Primary antibodies used were purchased from Cell Signaling Technology, Inc., Massachusetts, USA, and included BTK (1:1000; Cat. # 3533S), phosphor-BTK (Tyr223) (1:1000; Cat # 5082S), p44/42 MAPK (ERK1/2) (1:1000; Cat # 9102S), phospho-p44/42 MAPK (ERK1/2) (Thr202/Tyr204) (1:1000; Cat # 4376S), p38 MAPK (1:1000; Cat # 9212S), phospho-p38 MAPK (Thr180/Tyr182) (1:1000; Cat # 9211S), Lyn (C13F9) (1:1000: Cat # 2796), phospho-Lyn (Tyr507) (1:1000; Cat #2731), Syk (1:1000; Cat # 2712), phospho-Syk (Tyr525/526) (C87C1) (1:1000; Cat # 2710), and GAPDH (1:4000; Cat. # 2118). […] Band intensities were quantified using NIH ImageJ Software (NIH, Bethesda, Maryland, USA).

[2] = Liver microsomal stability; format: in vitro ADME; conditions: human liver microsomes, intrinsic clearance category
Method: as §1

pBTK (Tyr223) [3] = assay: Western blot of pBTK in LPS-stimulated RAMOS cells; format: cell-based, human; conditions: RAMOS cells stimulated with LPS 10 min, then 50 μM for 3 h
Method: as §3, §4

[4] = MDR1-MDCK permeability (blood–brain barrier model); format: in vitro ADME; conditions: dog
Method: as §1

MDR1 = assay: MDR1-MDCK permeability (blood–brain barrier model); format: in vitro ADME; conditions: dog
Method: as §1

MDR1-MDCK cells = assay: MDR1-MDCK permeability (blood–brain barrier model); format: in vitro ADME
Method: as §1

Plasma stability = format: in vitro ADME; conditions: human plasma, in vitro
Method: as §1

p-p38 (Thr180/Tyr182) = assay: Western blot of p-p38 in LPS-stimulated RAMOS cells; format: cell-based, human; conditions: RAMOS cells stimulated with LPS 10 min, then 50 μM for 3 h
Method: as §3, §4

CCRF-CEM = assay: 3 day MTS cytotoxicity assay, CCRF-CEM; format: cell-based; conditions: Homo sapiens, ITK-positive, mean ± SD, n ≥ 6
Method: as §2

Plasma protein binding = format: in vitro ADME; conditions: in vitro, read-out: plasma protein binding (% bound) (converted)
[5] = Parallel artificial membrane permeability assay (PAMPA); format: in vitro ADME; conditions: passive diffusion
Method: as §1

pERK 1/2 (Thr202/Tyr204) = assay: Western blot of pERK1/2 in LPS-stimulated RAMOS cells; format: cell-based, human; conditions: RAMOS cells stimulated with LPS 10 min, then 50 μM for 3 h
Method: as §3, §4

Syk phosphorylation = assay: Western blot of Syk phosphorylation in RAMOS cells; format: cell-based, human; conditions: 24 h
Method: as §3, §4

pBTK (Tyr223) [6] = assay: Western blot of BTK phosphorylation in RAMOS cells; format: cell-based, human
Method: as §3, §4

Papp [1] [×10⁻⁶ cm/s]	efflux ratio [1]	recovery [1] [%]	active efflux (Caco-2 cells)	recovery [4] [%]	Papp (MDR1) [×10⁻⁶ cm/s]	Compound	Caco-2 category (Caco-2 cells)	IC50 (HCT116p53^–/–) [µM]	IC50 (MRC-5) [µM]	IC50 (HCT116) [µM]	IC50 (K562) [µM]	IC50 (U2OS) [µM]	IC50 (JURKAT) [µM]	IC50 (BJ) [µM]	IC50 (A549) [µM]	activity in RAMOS cells (RAMOS)	IC50 (RAMOS) [µM]	Lyn phosphorylation (Lyn phosphorylation)	microsomal stability (clearance) [2]	pBTK (Tyr223) activation (pBTK (Tyr223) [3])	further results
3.18	2.69	45.4	active efflux: yes	60.2	2.92	O=C1Nc2ccc(S(=O)(=O)N3CCN(C(=O)C4CCCCC4)CC3)cc2C1=C1CCCC1 [9b, 5-((4-(Cyclohexanecarbonyl)piperazin-1-yl)sulfonyl)-3-cyclopentylideneindolin-2-one]	low permeability and low	> 50	> 50	> 50	> 50	> 50	> 50	> 50	> 50	selective cytotoxicity; also recorded: showed activity; also recorded: good anticancer activity in the micromole range	3.04 ± 0.56	significantly inhibited	metabolized quickly by microsomes and high	no significant effect	efflux ratio (MDR1): 9.3; MDR1-MDCK CNS (−ive/+ive) (MDR1-MDCK cells): CNS –ive; active efflux (MDR1-MDCK cells): active efflux: yes; plasma stability (category) (Plasma stability): stable; p-p38 (Thr180/Tyr182) levels (p-p38 (Thr180/Tyr182)): only evidenced on p-p38 (Thr180/Tyr182) levels; IC50 (CCRF-CEM): 35.5 ± 7.05 µM; fraction unbound (Plasma protein binding): 0.114; PAMPA category [5]: low
7.18	3.34	63.2	active efflux: yes	86.9	5.43	CCCCC(=O)N1CCN(S(=O)(=O)c2ccc3c(c2)C(=C2CCCC2)C(=O)N3)CC1 [9h, 3-Cyclopentylidene-5-((4-pentanoylpiperazin-1-yl)sulfonyl)indolin-2-one]	medium permeability; also recorded: moderate	> 50	> 50	> 50	> 50	> 50	> 50	> 50	> 50	selective cytotoxicity; also recorded: showed activity; also recorded: good anticancer activity in the micromole range	2.75 ± 0.8	without affecting; also recorded: did not affect	medium	significantly inhibited	pERK 1/2 (Thr202/Tyr204) levels (pERK 1/2 (Thr202/Tyr204)): decrease; Syk phosphorylation (Syk phosphorylation): without affecting; also recorded: did not affect; efflux ratio (MDR1): 13.1; MDR1-MDCK CNS (−ive/+ive) (MDR1-MDCK cells): CNS –ive; active efflux (MDR1-MDCK cells): active efflux: yes; plasma stability (category) (Plasma stability): stable; pBTK (Tyr223) levels (pBTK (Tyr223) [6]; 24 h, 50 μM): decrease was significant; pBTK (Tyr223) levels (pBTK (Tyr223) [6]; 24 h, 1, 10, and 50 μM): selective inhibition of pBTK (Tyr223); p-p38 (Thr180/Tyr182) levels (p-p38 (Thr180/Tyr182)): decrease; IC50 (CCRF-CEM): 46.1 ± 3.13 µM; fraction unbound (Plasma protein binding): 0.0334; PAMPA category [5]: medium
